Assay results: patent US9169254B2, “Spiroimidazolone derivative” (Chugai Seiyaku Kabushiki Kaisha, priority 2009, dated 2015)

Each compound was assayed against T1, human PTH1 receptor (Homo sapiens, UniProt Q03431) (assay: In vitro cAMP signal activity in HKRK-B7 cells (LLC-PK1 cells overexpressing the human PTH1 receptor)). Settings: HKRK-B7 cells; compound at 1×10^−3 M; cAMP produced as percentage of that produced by hPTH(1-34) at 100 nM.
T1 sequence (Q03431 27-593): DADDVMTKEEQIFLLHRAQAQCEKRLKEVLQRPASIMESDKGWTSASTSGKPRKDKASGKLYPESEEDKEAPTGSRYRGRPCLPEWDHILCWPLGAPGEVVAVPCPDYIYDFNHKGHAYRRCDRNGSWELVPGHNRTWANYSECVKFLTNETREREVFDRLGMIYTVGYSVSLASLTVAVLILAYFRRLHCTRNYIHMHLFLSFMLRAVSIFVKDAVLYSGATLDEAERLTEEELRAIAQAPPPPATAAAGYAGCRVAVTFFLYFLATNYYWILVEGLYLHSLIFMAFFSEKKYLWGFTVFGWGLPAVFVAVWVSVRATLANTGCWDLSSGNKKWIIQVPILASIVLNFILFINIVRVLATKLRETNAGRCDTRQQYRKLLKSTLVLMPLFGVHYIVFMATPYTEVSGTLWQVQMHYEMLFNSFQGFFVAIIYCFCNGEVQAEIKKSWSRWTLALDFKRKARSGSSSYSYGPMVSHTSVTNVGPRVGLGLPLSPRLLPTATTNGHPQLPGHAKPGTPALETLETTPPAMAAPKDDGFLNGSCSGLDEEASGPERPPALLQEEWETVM
Format: cell-based

Row | Structure (SMILES) | cAMP production activity (%)
1 | Cc1cc(C(=O)N2CCC(O)(CF)CC2)cc(C)c1/C=C/S(=O)(=O)N1CCC2(CC1)N=C(c1ccc(OCC(F)(F)C(F)F)c(Cl)c1)NC2=O [Compound 1247, 2-[3-chloro-4-(2,2,3,3-tetrafluoro-propoxy)-phenyl]-8-{(E)-2-[4-(4-fluoromethyl-4-hydroxy-piperidine-1-carbonyl)-2,6-dimethyl-phenyl]-ethenesulfonyl}-1,3,8-triaza-spiro[4.5]dec-1-en-4-one] | 70%
2 | Cc1cc(C(=O)N2CCC(O)(CF)CC2)cc(C)c1/C=C/S(=O)(=O)N1CCC2(CC1)N=C(c1ccc(OCC(F)(F)F)c(C(F)(F)F)c1)NC2=O [Compound 1248, 8-{(E)-2-[4-(4-fluoromethyl-4-hydroxy-piperidine-1-carbonyl)-2,6-dimethyl-phenyl]-ethenesulfonyl}-2-[4-(2,2,2-trifluoro-ethoxy)-3-trifluoromethyl-phenyl]-1,3,8-triaza-spiro[4.5]dec-1-en-4-one] | 81%
3 | Cc1cc(C(=O)N2CCC(O)(CF)CC2)cc(C)c1/C=C/S(=O)(=O)N1CCC2(CC1)N=C(c1ccc(OCCCC(F)(F)F)c(C(F)(F)F)c1)NC2=O [Compound 1250, 8-{(E)-2-[4-(4-fluoromethyl-4-hydroxy-piperidine-1-carbonyl)-2,6-dimethyl-phenyl]-ethenesulfonyl}-2-[4-(4,4,4-trifluoro-butoxy)-3-trifluoromethyl-phenyl]-1,3,8-triaza-spiro[4.5]dec-1-en-4-one] | 67%
4 | Cc1cc(C(=O)N2CCC(O)(CF)CC2)cc(C)c1/C=C/S(=O)(=O)N1CCC2(CC1)N=C(c1ccc(OCC(F)(F)C(F)F)c(C(F)(F)F)c1)NC2=O [Compound 1251, 8-{(E)-2-[4-(4-fluoromethyl-4-hydroxy-piperidine-1-carbonyl)-2,6-dimethyl-phenyl]-ethenesulfonyl}-2-[4-(2,2,3,3-tetrafluoro-propoxy)-3-trifluoromethyl-phenyl]-1,3,8-triaza-spiro[4.5]dec-1-en-4-one] | 56%
5 | Cc1cc(C(=O)N2CCC(O)(CF)CC2)cc(C)c1/C=C/S(=O)(=O)N1CCC2(CC1)N=C(c1ccc(OCCCC(F)(F)C(F)(F)F)c(C(F)(F)F)c1)NC2=O [Compound 1252, 8-{(E)-2-[4-(4-fluoromethyl-4-hydroxy-piperidine-1-carbonyl)-2,6-dimethyl-phenyl]-ethenesulfonyl}-2-[4-(4,4,5,5,5-pentafluoro-pentyloxy)-3-trifluoromethyl-phenyl]-1,3,8-triaza-spiro[4.5]dec-1-en-4-one] | 72%
6 | [2H]C([2H])([2H])C([2H])([2H])Oc1ccc(C2=NC3(CCN(S(=O)(=O)/C=C/c4c(C)cc(C(=O)N5CCC(O)(CF)CC5)cc4C)CC3)C(=O)N2)cc1C(F)(F)F [Compound 1253, 2-(4-[1,1,2,2,2-^2H5]ethoxy-3-trifluoromethyl-phenyl)-8-{(E)-2-[4-(4-fluoromethyl-4-hydroxy-piperidine-1-carbonyl)-2,6-dimethyl-phenyl]-ethenesulfonyl}-1,3,8-triaza-spiro[4.5]dec-1-en-4-one] | 81%
7 | Cc1cc(C2=NC3(CCN(S(=O)(=O)/C=C/c4c(C)cc(C(=O)N5CCC(O)(CF)CC5)cc4C)CC3)C(=O)N2)ccc1C(F)(F)F [Compound 1254, 8-{(E)-2-[4-(4-fluoromethyl-4-hydroxy-piperidine-1-carbonyl)-2,6-dimethyl-phenyl]-ethenesulfonyl}-2-(3-methyl-4-trifluoromethyl-phenyl)-1,3,8-triaza-spiro[4.5]dec-1-en-4-one] | 87%
8 | Cc1cc(C(F)(F)F)ccc1C1=NC2(CCN(S(=O)(=O)/C=C/c3c(C)cc(C(=O)N4CCC(O)(CF)CC4)cc3C)CC2)C(=O)N1 [Compound 1259, 8-{(E)-2-[4-(4-fluoromethyl-4-hydroxy-piperidine-1-carbonyl)-2,6-dimethyl-phenyl]-ethenesulfonyl}-2-(2-methyl-4-trifluoromethyl-phenyl)-1,3,8-triaza-spiro[4.5]dec-1-en-4-one] | 101%
9 | Cc1cc(C(=O)N2CCC(O)(CF)CC2)cc(C)c1/C=C/S(=O)(=O)N1CCC2(CC1)N=C(c1ccc(OCC(F)(F)F)c(F)c1)NC2=O [Compound 1260, 8-{(E)-2-[4-(4-fluoromethyl-4-hydroxy-piperidine-1-carbonyl)-2,6-dimethyl-phenyl]-ethenesulfonyl}-2-[3-fluoro-4-(2,2,2-trifluoro-ethoxy)-phenyl]-1,3,8-triaza-spiro[4.5]dec-1-en-4-one] | 81%
10 | [2H]C([2H])([2H])C([2H])([2H])C([2H])([2H])C([2H])([2H])Oc1ccc(C2=NC3(CCN(S(=O)(=O)/C=C/c4c(C)cc(C(=O)N5CCC(O)(CF)CC5)cc4C)CC3)C(=O)N2)cc1C(F)(F)F [Compound 1261, 2-(4-[1,1,2,2,3,3,4,4,4-^2H9]butoxy-3-trifluoromethyl-phenyl)-8-{(E)-2-[4-(4-fluoromethyl-4-hydroxy-piperidine-1-carbonyl)-2,6-dimethyl-phenyl]-ethenesulfonyl}-1,3,8-triaza-spiro[4.5]dec-1-en-4-one] | 99%

Next, values leading:

Row | cAMP production activity (%) | Structure (SMILES)
11 | 62% | Cc1cc(C(=O)N2CCC(O)(CF)CC2)cc(C)c1/C=C/S(=O)(=O)N1CCC2(CC1)N=C(c1ccc(OCC(F)(F)C(F)(F)F)c(C(F)(F)F)c1)NC2=O [Compound 1249, 8-{(E)-2-[4-(4-fluoromethyl-4-hydroxy-piperidine-1-carbonyl)-2,6-dimethyl-phenyl]-ethenesulfonyl}-2-[4-(2,2,3,3,3-pentafluoro-propoxy)-3-trifluoromethyl-phenyl]-1,3,8-triaza-spiro[4.5]dec-1-en-4-one]
12 | 66% | Cc1cc(C(=O)N2CCC(O)(CF)CC2)cc(C)c1/C=C/S(=O)(=O)N1CCC2(CC1)N=C(c1ccc(C(F)F)c(F)c1)NC2=O [Compound 1255, 2-(4-difluoromethyl-3-fluoro-phenyl)-8-{(E)-2-[4-(4-fluoromethyl-4-hydroxy-piperidine-1-carbonyl)-2,6-dimethyl-phenyl]-ethenesulfonyl}-1,3,8-triaza-spiro[4.5]dec-1-en-4-one]
13 | 72% | Cc1cc(C(=O)N2CCC(O)(CF)CC2)cc(C)c1/C=C/S(=O)(=O)N1CCC2(CC1)N=C(c1ccc(F)c(C(F)F)c1)NC2=O [Compound 1256, 2-(3-difluoromethyl-4-fluoro-phenyl)-8-{(E)-2-[4-(4-fluoromethyl-4-hydroxy-piperidine-1-carbonyl)-2,6-dimethyl-phenyl]-ethenesulfonyl}-1,3,8-triaza-spiro[4.5]dec-1-en-4-one]
14 | 98% | Cc1cc(C(=O)N2CCC(O)(CF)CC2)cc(C)c1/C=C/S(=O)(=O)N1CCC2(CC1)N=C(c1ccc(Cl)c(Cl)c1)NC2=O [Compound 1257, 2-(3,4-dichloro-phenyl)-8-{(E)-2-[4-(4-fluoromethyl-4-hydroxy-piperidine-1-carbonyl)-2,6-dimethyl-phenyl]-ethenesulfonyl}-1,3,8-triaza-spiro[4.5]dec-1-en-4-one]
15 | 116% | Cc1cc(C2=NC3(CCN(S(=O)(=O)/C=C/c4c(C)cc(C(=O)N5CCC(O)(CF)CC5)cc4C)CC3)C(=O)N2)ccc1OC(F)(F)F [Compound 1258, 8-{(E)-2-[4-(4-fluoromethyl-4-hydroxy-piperidine-1-carbonyl)-2,6-dimethyl-phenyl]-ethenesulfonyl}-2-(3-methyl-4-trifluoromethoxy-phenyl)-1,3,8-triaza-spiro[4.5]dec-1-en-4-one]
